From the supplement of paper PMC10307832

Assays:
Test in all cases: relative viability (nuclei count vs DMSO), 5 days (fraction); higher = more cells survive
NCI-H322M = tested on: NCI-H322M
Summary of the method: (§1)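 Lung cancer cell lines in 1536-well plates were dosed by pin tool the day after seeding, either with one drug alone or with a fixed anchor-drug dose plus five library-drug doses (not always all listed) in √10 steps. After 5 days, cells were fixed and their nuclei stained in one step (final 0.05% Triton X-100, 1% formaldehyde, 1 ug/ml Hoechst), then counted on 4× images. Relative viability is the nuclei count in treated wells divided by that in vehicle wells. Values are medians of duplicate plates.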

NCI-H727 = tested on: NCI-H727
Summary of the method: as §1

NCI-H2009 = tested on: NCI-H2009
Summary of the method: as §1

NCI-H1355 = tested on: NCI-H1355
Summary of the method: as §1

NCI-H23 = tested on: NCI-H23
Summary of the method: as §1

NCI-H650 = tested on: NCI-H650
Summary of the method: as §1

NCI-H2023 = tested on: NCI-H2023
Summary of the method: as §1

SK-MES-1 = tested on: SK-MES-1
Summary of the method: as §1

NCI-H2405 = tested on: NCI-H2405
Summary of the method: as §1

RERF-LC-KJ = tested on: RERF-LC-KJ
Summary of the method: as §1

LOU-NH91 = tested on: LOU-NH91
Summary of the method: as §1

HOP-62 = tested on: HOP-62
Summary of the method: as §1

NCI-H1437 = tested on: NCI-H1437
Summary of the method: as §1

NCI-H2085 = tested on: NCI-H2085
Summary of the method: as §1

LCLC-97TM1 = tested on: LCLC-97TM1
Summary of the method: as §1

HCC-78 = tested on: HCC-78
Summary of the method: as §1

NCI-H1792 = tested on: NCI-H1792
Summary of the method: as §1

ABC-1 = tested on: ABC-1
Summary of the method: as §1

UMC-11 = tested on: UMC-11
Summary of the method: as §1

NCI-H441 = tested on: NCI-H441
Summary of the method: as §1

NCI-H1755 = tested on: NCI-H1755
Summary of the method: as §1

Work on `Cc1cnc(-c2cnc(NCCNc3ccc(C#N)cn3)nc2-c2ccc(Cl)cc2Cl)[nH]1` + C[C@]1(O)C[C@@H](c2nc(-c3ccc4ccc(-c5ccccc5)nc4c3)c3c(N)nccn32)C1 [Linsitinib] (partner 1 µM) yielded a relative viability (NCI-H322M; first compound 0.08 µM) of 0.99, a relative viability (NCI-H322M; first compound 0.253 µM) of 0.853 and a relative viability (NCI-H322M; first compound 0.8 µM) of 0.874. For the same molecule, the relative viability (NCI-H322M; first compound 2.53 µM) was 0.947, the relative viability (NCI-H727; first compound 0.08 µM) was 0.29 and the relative viability (NCI-H727; first compound 0.253 µM) was 0.334. The relative viability (NCI-H727; first compound 0.8 µM) was 0.295, the relative viability (NCI-H2009; first compound 0.08 µM) was 1.21 and the relative viability (NCI-H2009; first compound 0.253 µM) was 1.14. It also gave a relative viability (NCI-H2009; first compound 0.8 µM) of 1.23, a relative viability (NCI-H2009; first compound 2.53 µM) of 1.1 and a relative viability (NCI-H1355; first compound 0.08 µM) of 0.88. The relative viability (NCI-H1355; first compound 0.253 µM) was 0.841, the relative viability (NCI-H1355; first compound 0.8 µM) was 0.765 and the relative viability (NCI-H1355; first compound 2.53 µM) was 0.732. The relative viability (NCI-H23; first compound 0.08 µM) was 0.674, the relative viability (NCI-H23; first compound 0.253 µM) was 0.555 and the relative viability (NCI-H23; first compound 0.8 µM) was 0.536. It also gave a relative viability (NCI-H23; first compound 2.53 µM) of 0.691, a relative viability (NCI-H650; first compound 0.08 µM) of 1.02 and a relative viability (NCI-H650; first compound 0.253 µM) of 0.769. It also gave a relative viability (NCI-H650; first compound 0.8 µM) of 0.93, a relative viability (NCI-H650; first compound 2.53 µM) of 0.712 and a relative viability (NCI-H2023; first compound 0.08 µM) of 0.779. The relative viability (NCI-H2023; first compound 0.253 µM) was 0.649, the relative viability (NCI-H2023; first compound 0.8 µM) was 0.794 and the relative viability (NCI-H2023; first compound 2.53 µM) was 1.12. For the same molecule, the relative viability (SK-MES-1; first compound 0.08 µM) was 1.2, the relative viability (SK-MES-1; first compound 0.253 µM) was 1.03 and the relative viability (SK-MES-1; first compound 0.8 µM) was 1.05. The relative viability (SK-MES-1; first compound 2.53 µM) was 1.04, the relative viability (NCI-H2405; first compound 0.08 µM) was 1.25 and the relative viability (NCI-H2405; first compound 0.253 µM) was 0.856. The relative viability (NCI-H2405; first compound 0.8 µM) was 0.999, the relative viability (NCI-H2405; first compound 2.53 µM) was 0.709 and the relative viability (RERF-LC-KJ; first compound 0.08 µM) was 0.948. It also gave a relative viability (RERF-LC-KJ; first compound 0.253 µM) of 0.828, a relative viability (RERF-LC-KJ; first compound 0.8 µM) of 0.843 and a relative viability (RERF-LC-KJ; first compound 2.53 µM) of 0.877. For the same molecule, the relative viability (LOU-NH91; first compound 0.08 µM) was 1.07, the relative viability (LOU-NH91; first compound 0.253 µM) was 0.951 and the relative viability (LOU-NH91; first compound 0.8 µM) was 0.969. For the same molecule, the relative viability (LOU-NH91; first compound 2.53 µM) was 0.89, the relative viability (HOP-62; first compound 0.08 µM) was 1.09 and the relative viability (HOP-62; first compound 0.253 µM) was 0.972. The relative viability (HOP-62; first compound 0.8 µM) was 0.775, the relative viability (HOP-62; first compound 2.53 µM) was 0.794 and the relative viability (NCI-H1437; first compound 0.08 µM) was 1.01. For the same molecule, the relative viability (NCI-H1437; first compound 0.253 µM) was 0.972, the relative viability (NCI-H1437; first compound 0.8 µM) was 1.03 and the relative viability (NCI-H1437; first compound 2.53 µM) was 1.04. It also gave a relative viability (NCI-H2085; first compound 0.08 µM) of 0.986, a relative viability (NCI-H2085; first compound 0.253 µM) of 0.932 and a relative viability (NCI-H2085; first compound 0.8 µM) of 0.919. It also gave a relative viability (NCI-H2085; first compound 2.53 µM) of 0.882, a relative viability (LCLC-97TM1; first compound 0.08 µM) of 0.206 and a relative viability (LCLC-97TM1; first compound 0.253 µM) of 0.177. It also gave a relative viability (LCLC-97TM1; first compound 0.8 µM) of 0.172, a relative viability (LCLC-97TM1; first compound 2.53 µM) of 0.208 and a relative viability (HCC-78; first compound 0.08 µM) of 0.632. For the same molecule, the relative viability (HCC-78; first compound 0.253 µM) was 0.437, the relative viability (HCC-78; first compound 0.8 µM) was 0.459 and the relative viability (HCC-78; first compound 2.53 µM) was 0.435. It also gave a relative viability (NCI-H1792; first compound 0.08 µM) of 0.683, a relative viability (NCI-H1792; first compound 0.253 µM) of 0.435 and a relative viability (NCI-H1792; first compound 0.8 µM) of 0.464. It also gave a relative viability (NCI-H1792; first compound 2.53 µM) of 0.524, a relative viability (ABC-1; first compound 0.08 µM) of 1.04 and a relative viability (ABC-1; first compound 0.253 µM) of 0.682. For the same molecule, the relative viability (ABC-1; first compound 0.8 µM) was 0.839, the relative viability (ABC-1; first compound 2.53 µM) was 0.593 and the relative viability (UMC-11; first compound 0.08 µM) was 1.04. It also gave a relative viability (UMC-11; first compound 0.253 µM) of 1, a relative viability (UMC-11; first compound 0.8 µM) of 1 and a relative viability (UMC-11; first compound 2.53 µM) of 0.985. The relative viability (NCI-H441; first compound 0.08 µM) was 0.662, the relative viability (NCI-H441; first compound 0.253 µM) was 0.445 and the relative viability (NCI-H441; first compound 0.8 µM) was 0.606. For the same molecule, the relative viability (NCI-H441; first compound 2.53 µM) was 0.519, the relative viability (NCI-H1755; first compound 0.08 µM) was 1.03 and the relative viability (NCI-H1755; first compound 0.253 µM) was 0.856. It also gave a relative viability (NCI-H1755; first compound 0.8 µM) of 0.958 and a relative viability (NCI-H1755; first compound 2.53 µM) of 0.991.
